Legend:
[1] = test system: epidemic keratoconjunctivitis (EKC); details: eye drops tested clinically; cited from earlier work
[2] = Chromatographic compatibility analyses (cation exchange, size exclusion, BAK method); assay type: physicochemical; details: no interference in cation exchange, size exclusion and BAK chromatography; PBS pH 7.4
Description: A formulation was prepared having 0.03% w/v ranpirnase together with oxymetazoline or brimonidine. The formulations were analyzed by chromatography to verify whether the therapeutic agent interferes with ranpirnase. Several chromatography methods were employed, including cation exchange and size exclusion chromatography, as well as benzalkonium chloride (BAK) analysis.
(§1) For cation exchange chromatography, analysis was performed with the following solutions: diluent (PBS pH 7.4), oxymetazoline HCl (0.5 mg/mL), placebo, and ranpirnase. Oxymetazoline HCl (0.5 mg/mL) solution was prepared in diluent. Both ranpirnase and its placebo were removed from the refrigerator, warmed to room temperature, and vialed into HPLC vials.
as §1, with “size exclusion” for “cation exchange”, “on” for “with”
The benzalkonium chloride (BAK) analysis was performed on the following solutions: diluent (PBS pH 7.4), oxymetazoline HCl (0.05 mg/mL), placebo, and ranpirnase. Oxymetazoline HCl (0.5 mg/mL) solution (10×) was diluted to 0.05 mg/mL in diluent. […]

[3] = test system: NFκB; details: in vitro study; cited from earlier work

In the case of `Nc1ccn(C[C@@H](CO)OCP(=O)(O)O)c(=O)n1` [cidofovir], the “clinical benefit in epidemic keratoconjunctivitis” value [1] is given as “no definitive benefit was observed”.

With `Cc1cc(C(C)(C)C)c(O)c(C)c1CC1=NCCN1` [oxymetazoline, 3-(4,5-dihydro-1H-imidazol-2-ylmethyl)-2,4-dimethyl-6-tert-butyl-phenol] the “compatibility of formulating with ranpirnase in an ophthalmic formulation” value [2] was “compatibility”.

B1: ranpirnase: amphibian ribonuclease from Rana pipiens oocytes/early embryos, RNase A superfamily, about 12 kD (protein, UniProt P22069 1-104, looked up)
Protein P-30: QDWLTFQKKHITNTRDVDCDNIMSTNLFHCKDKNTFIYSRPEPVKAICKGIIASKNVLTTSEFYLSDCNVTSRPCKYKLKKSTNKFCVTCENQAPVHFVGVGSC
For B1, the “translocation of NFκB into the nucleus” value [3] is listed as “inhibits translocation of NFκB into the nucleus”.

Source: patent US20230218726A1, “TREATMENT OF VIRAL CONJUNCTIVITIS” (Okogen, Inc., priority 2020, published 2023)
